Data as given in PubChem BioAssay (NCI).
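Interpolation was linear, between the two tested concentrations surrounding the appropriate level; five concentrations were tested over 48 hours in 96-well plates. TGI: total growth inhibition.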

Columns and labels:
Test in all cases: growth of human tumour cells (NCI), 48 h
UACC-257 melanoma = tested on: UACC-257 melanoma
HCT-15 colon = tested on: HCT-15 colon
EKVX NSCLC = tested on: EKVX NSCLC
HCT-116 colon = tested on: HCT-116 colon
ACHN renal = tested on: ACHN renal
MDA-MB-435 = tested on: MDA-MB-435
NCI/ADR-RES ovarian = tested on: NCI/ADR-RES ovarian
NCI-H23 lung = tested on: NCI-H23 lung
HOP-62 NSCLC = tested on: HOP-62 NSCLC
A498 renal = tested on: A498 renal
SNB-75 CNS = tested on: SNB-75 CNS
SF-268 CNS = tested on: SF-268 CNS
MDA-MB-231 breast = tested on: MDA-MB-231 breast
CAKI-1 renal = tested on: CAKI-1 renal
HCC-2998 colon = tested on: HCC-2998 colon
NCI-H522 lung = tested on: NCI-H522 lung
SF-295 CNS = tested on: SF-295 CNS
RPMI-8226 leukemia = tested on: RPMI-8226 leukemia
MDA-N = tested on: MDA-N
HT29 colon = tested on: HT29 colon
IGROV1 ovarian = tested on: IGROV1 ovarian
OVCAR-5 ovarian = tested on: OVCAR-5 ovarian
OVCAR-4 ovarian = tested on: OVCAR-4 ovarian
MCF7 breast = tested on: MCF7 breast
SN12C renal = tested on: SN12C renal
SNB-19 CNS = tested on: SNB-19 CNS
LOX IMVI melanoma = tested on: LOX IMVI melanoma
COLO 205 colon = tested on: COLO 205 colon
SW-620 colon = tested on: SW-620 colon
HOP-92 NSCLC = tested on: HOP-92 NSCLC
OVCAR-8 ovarian = tested on: OVCAR-8 ovarian
DU-145 prostate = tested on: DU-145 prostate
SF-539 CNS = tested on: SF-539 CNS
SK-MEL-2 melanoma = tested on: SK-MEL-2 melanoma
HL-60(TB) leukemia = tested on: HL-60(TB) leukemia
A549 NSCLC = tested on: A549 NSCLC
CCRF-CEM leukemia = tested on: CCRF-CEM leukemia
KM12 colon = tested on: KM12 colon
BT-549 breast = tested on: BT-549 breast
SK-OV-3 ovarian = tested on: SK-OV-3 ovarian
UO-31 renal = tested on: UO-31 renal
786-0 renal = tested on: 786-0 renal
M14 melanoma = tested on: M14 melanoma
NCI-H226 lung = tested on: NCI-H226 lung
SR leukemia = tested on: SR leukemia
SK-MEL-28 melanoma = tested on: SK-MEL-28 melanoma
SK-MEL-5 melanoma = tested on: SK-MEL-5 melanoma
K-562 leukemia = tested on: K-562 leukemia
OVCAR-3 ovarian = tested on: OVCAR-3 ovarian
NCI-H460 lung = tested on: NCI-H460 lung
UACC-62 melanoma = tested on: UACC-62 melanoma
PC-3 prostate = tested on: PC-3 prostate
TK-10 renal = tested on: TK-10 renal
RXF 393 renal = tested on: RXF 393 renal
MOLT-4 leukemia = tested on: MOLT-4 leukemia
HS 578T breast = tested on: HS 578T breast
U251 CNS = tested on: U251 CNS
T-47D breast = tested on: T-47D breast
MALME-3M melanoma = tested on: MALME-3M melanoma

SMILES: O=C1c2ccccc2CC12Cc1ccc3c(c1C2)CCC3 (stereo unspecified)
- TGI (UACC-257 melanoma): 30.2 µM
- TGI (HCT-15 colon): 31.6 µM
- TGI (EKVX NSCLC): 47.7 µM
- TGI (HCT-116 colon): 40.1 µM
- TGI (ACHN renal): 61 µM
- TGI (MDA-MB-435): 33.7 µM
- TGI (NCI/ADR-RES ovarian): 28.4 µM
- TGI (NCI-H23 lung): > 100 µM
- TGI (HOP-62 NSCLC): 69.5 µM
- TGI (A498 renal): > 100 µM
- TGI (SNB-75 CNS): 97.9 µM
- TGI (SF-268 CNS): > 100 µM
- TGI (MDA-MB-231 breast): 47.1 µM
- TGI (CAKI-1 renal): > 100 µM
- TGI (HCC-2998 colon): 54.7 µM
- TGI (NCI-H522 lung): 25.2 µM
- TGI (SF-295 CNS): 76.5 µM
- TGI (RPMI-8226 leukemia): 59.6 µM
- TGI (MDA-N): 44.4 µM
- TGI (HT29 colon): 29.2 µM
- TGI (IGROV1 ovarian): > 100 µM
- TGI (OVCAR-5 ovarian): 42.2 µM
- TGI (OVCAR-4 ovarian): > 100 µM
- TGI (MCF7 breast): 39.6 µM
- TGI (SN12C renal): > 100 µM
- TGI (SNB-19 CNS): > 100 µM
- TGI (LOX IMVI melanoma): 24.8 µM
- TGI (COLO 205 colon): 59.3 µM
- TGI (SW-620 colon): > 100 µM
- TGI (HOP-92 NSCLC): 34.9 µM
- TGI (OVCAR-8 ovarian): > 100 µM
- TGI (DU-145 prostate): > 100 µM
- TGI (SF-539 CNS): 90.2 µM
- TGI (SK-MEL-2 melanoma): 30.2 µM
- TGI (HL-60(TB) leukemia): 42.1 µM
- TGI (A549 NSCLC): 64.2 µM
- TGI (CCRF-CEM leukemia): 49.3 µM
- TGI (KM12 colon): 73.9 µM
- TGI (BT-549 breast): > 100 µM
- TGI (SK-OV-3 ovarian): > 100 µM
- TGI (UO-31 renal): > 100 µM
- TGI (786-0 renal): 51.7 µM
- TGI (M14 melanoma): 49.1 µM
- TGI (NCI-H226 lung): 64.7 µM
- TGI (SR leukemia): 44.1 µM
- TGI (SK-MEL-28 melanoma): > 100 µM
- TGI (SK-MEL-5 melanoma): 28.8 µM
- TGI (K-562 leukemia): > 100 µM
- TGI (OVCAR-3 ovarian): 41.7 µM
- TGI (NCI-H460 lung): 79.2 µM
- TGI (UACC-62 melanoma): 60.5 µM
- TGI (PC-3 prostate): > 100 µM
- TGI (TK-10 renal): 26.7 µM
- TGI (RXF 393 renal): 38.7 µM
- TGI (MOLT-4 leukemia): > 100 µM
- TGI (HS 578T breast): 83.4 µM
- TGI (U251 CNS): 38 µM
- TGI (T-47D breast): > 100 µM
- TGI (MALME-3M melanoma): 30.3 µM

SMILES: O=C(/C=C/c1ccc([N+](=O)[O-])cc1)c1nc2ccccc2[nH]1
- TGI (UACC-257 melanoma): 31.4 µM
- TGI (HCT-15 colon): > 100 µM
- TGI (EKVX NSCLC): > 100 µM
- TGI (HCT-116 colon): > 38.7 µM
- TGI (ACHN renal): > 100 µM
- TGI (MDA-MB-435): > 100 µM
- TGI (NCI/ADR-RES ovarian): > 100 µM
- TGI (HOP-62 NSCLC): > 100 µM
- TGI (A498 renal): 3.99 µM
- TGI (SNB-75 CNS): > 100 µM
- TGI (SF-268 CNS): > 100 µM
- TGI (MDA-MB-231 breast): > 57.2 µM
- TGI (CAKI-1 renal): > 100 µM
- TGI (NCI-H522 lung): > 100 µM
- TGI (SF-295 CNS): > 100 µM
- TGI (RPMI-8226 leukemia): 33.3 µM
- TGI (MDA-N): > 100 µM
- TGI (HT29 colon): > 100 µM
- TGI (IGROV1 ovarian): 17.9 µM
- TGI (OVCAR-5 ovarian): 24.1 µM
- TGI (OVCAR-4 ovarian): > 100 µM
- TGI (MCF7 breast): > 100 µM
- TGI (SN12C renal): > 100 µM
- TGI (SNB-19 CNS): > 100 µM
- TGI (LOX IMVI melanoma): > 100 µM
- TGI (COLO 205 colon): > 100 µM
- TGI (SW-620 colon): > 100 µM
- TGI (HOP-92 NSCLC): > 100 µM
- TGI (OVCAR-8 ovarian): > 100 µM
- TGI (DU-145 prostate): > 100 µM
- TGI (SF-539 CNS): > 73.6 µM
- TGI (SK-MEL-2 melanoma): > 100 µM
- TGI (HL-60(TB) leukemia): > 29.9 µM
- TGI (A549 NSCLC): > 100 µM
- TGI (CCRF-CEM leukemia): > 100 µM
- TGI (KM12 colon): > 100 µM
- TGI (BT-549 breast): > 100 µM
- TGI (SK-OV-3 ovarian): > 100 µM
- TGI (UO-31 renal): > 100 µM
- TGI (786-0 renal): > 100 µM
- TGI (M14 melanoma): > 100 µM
- TGI (NCI-H226 lung): 4.39 µM
- TGI (SR leukemia): 11.3 µM
- TGI (SK-MEL-28 melanoma): > 100 µM
- TGI (SK-MEL-5 melanoma): > 100 µM
- TGI (K-562 leukemia): > 61.5 µM
- TGI (OVCAR-3 ovarian): > 78.1 µM
- TGI (NCI-H460 lung): > 100 µM
- TGI (UACC-62 melanoma): 63 µM
- TGI (PC-3 prostate): > 100 µM
- TGI (TK-10 renal): > 37.8 µM
- TGI (RXF 393 renal): > 100 µM
- TGI (MOLT-4 leukemia): 99.7 µM
- TGI (HS 578T breast): > 100 µM
- TGI (U251 CNS): > 100 µM
- TGI (T-47D breast): > 84.8 µM
- TGI (MALME-3M melanoma): > 100 µM
